Our source for the target mRNA inhibition values is the OligoGym collection.

Values joined by “and” are separate entries in the source; they are usually repeats but may differ in a detail not shown here. Identical values can stand only once. After the bases stand the sugars from the 5' end (letter, count) and the backbone: PS all phosphorothioate, else s phosphorothioate and o phosphodiester by linkage. Methylation of C is not given here. e = 2'-O-(2-methoxyethyl) (MOE); k = constrained ethyl (cEt); d = 2'-deoxy (DNA)

The target of the series is IRF4. The settings on record: ASO.

As for ACTCCATGAGGTTTTC (sugars k3 d10 k3, PS), the target mRNA inhibition (SK-MEL-28, 4 µM) worked out at 73%.

As to ACTCTTAGGCACATCA (sugars k3 d10 k3, PS), the target mRNA inhibition (MM.1R, 1 µM) turned out to be 27%. Turning to ACTGACCTTTACTTCA (sugars k3 d10 k3, PS), the target mRNA inhibition (SK-MEL-28, 4 µM) was 43%. Regarding ACTGCCGTGATCTGAG (sugars k3 d10 k3, PS), the target mRNA inhibition (MM.1R, 1 µM) was 34% and 29%. On the same count and under the same terms, as for “ACTGCTTGAGGTTTTC (sugars kddddddddddkekek, PS)”, the figure is 22%; as for “ACTGCTTGAGGTTTTC (sugars kkdddddddddkdkdk, PS)”, 19%. Take ACTGGATTGATGTGAT (sugars k3 d10 k3, PS): the target mRNA inhibition (MM.1R, 0.0625 µM) is 2% and 9%; the target mRNA inhibition (MM.1R, 0.25 µM) was 6% and 20%; the target mRNA inhibition (MM.1R, 1 µM) is 25% and 39%; the target mRNA inhibition (MM.1R, 4 µM) is 65% and 69%. Consider ACTGTCCACTGAGTAC (sugars k3 d10 k3, PS), for which, for the setting “SK-MEL-28, 4 µM”, the target mRNA inhibition was 61%.

ACTGTTACCGATGCTT (sugars k3 d10 k3, PS): the target mRNA inhibition is -11% (MM.1R, 0.0625 µM); 4% (MM.1R, 0.25 µM); 43% and 25% (MM.1R, 1 µM); 65% (MM.1R, 4 µM). On to “ACTGTTACCGATGCTT (sugars kdddddddddkekeke, PS)”, for which the target mRNA inhibition (MM.1R, 1 µM) was -2% and 17%. Regarding ACTTAACCCACATCAC (sugars k3 d10 k3, PS), the target mRNA inhibition (SK-MEL-28, 4 µM) is -22%. The same measure, in the same setting: the same measure for AGAAACCCTCATCACC (sugars k3 d10 k3, PS): -5%; for AGAAAGAAGCAAGTCG (sugars k3 d10 k3, PS): 37%. Turning to AGAACGCACGGACGAA (sugars k3 d10 k3, PS), the target mRNA inhibition (MM.1R, 1 µM) turned out to be 1%. AGAATAAACACCCCTT (sugars k3 d10 k3, PS): the target mRNA inhibition (SK-MEL-28, 4 µM) amounted to 74%. On to AGAGACCATGTTCAGA (sugars k3 d10 k3, PS), for which the target mRNA inhibition (MM.1R, 1 µM) was found to be 12%. Same read-out and setting: as for AGAGGAATGAGCACTC (sugars k3 d10 k3, PS), the figure is 5%. With AGAGGAATGGCGGATA (sugars k3 d10 k3, PS), the target mRNA inhibition (SK-MEL-28, 4 µM) turned out to be 42%. The same measure, in the same setting: as for AGATCGAGCGGTGAAA (sugars k3 d10 k3, PS), the figure is 24%; as for AGATTAATAGTAAGTT (sugars k3 d10 k3, PS), 4%. Consider AGATTTACACCGTTGC (sugars k3 d10 k3, PS), for which the target mRNA inhibition (MM.1R, 1 µM) was determined as 30%. With AGCAAAACGCAGAGCC (sugars k3 d10 k3, PS), under “SK-MEL-28, 4 µM”, the target mRNA inhibition came to 61%. As for AGCAAGGCCTCTGAGC (sugars k3 d10 k3, PS), the target mRNA inhibition (SK-MEL-28, 4 µM) is 55%. On to AGCAGTAAACGCAAGT (sugars k3 d10 k3, PS), for which the target mRNA inhibition (MM.1R, 1 µM) was 27%. With AGCAGTGATGTCAGGT (sugars k3 d10 k3, PS), the target mRNA inhibition was 1% (MM.1R, 0.0625 µM); 23% (MM.1R, 0.25 µM); 84% and 68% (MM.1R, 1 µM); 92% (MM.1R, 4 µM).

With “AGCAGTGATGTCAGGT (sugars kkdddddddddkekek, PS)”, the target mRNA inhibition by setting is: (MM.1R, 0.0625 µM) 34%; (MM.1R, 0.25 µM) 54%; (MM.1R, 1 µM) 66% and 67% and 64%; (MM.1R, 4 µM) 79%. For the sequence AGCATAGCATTATCTA (sugars k3 d10 k3, PS), the target mRNA inhibition (SK-MEL-28, 4 µM) stood at 34%. As to AGCATCACTATTAAGA (sugars k3 d10 k3, PS), the target mRNA inhibition is -5% (MM.1R, 0.0625 µM); 2% (MM.1R, 0.074 µM); 10% (MM.1R, 0.222 µM); 1% (MM.1R, 0.25 µM); 10% (MM.1R, 0.666 µM); 10% (MM.1R, 1 µM). Moreover, the target mRNA inhibition (MM.1R, 2 µM) worked out at 11%; the target mRNA inhibition (MM.1R, 4 µM) stood at 26%; the target mRNA inhibition (SK-MEL-28, 4 µM) was 72%. Take AGCATCCGCTTGGAGA (sugars k3 d10 k3, PS): the target mRNA inhibition (SK-MEL-28, 4 µM) is 37%. For AGCATTATCTACCTCA (sugars k3 d10 k3, PS), the target mRNA inhibition (SK-MEL-28, 4 µM) turned out to be 78%.
